Measured values taken from patent publication US11867696B2, “Antigen-coupled immunoreagents” (CELL IDX, INC., priority 2015, dated 2024).
Where no end group is shown, it is not given here. [ ]: non-standard residue; d: D form. The star is where a group is joined. AOA = aminooxyacetyl (N-terminus modified with aminooxyacetamide), NOCC(=O)*; pY = N[C@@H](Cc1ccc(OP(=O)(O)O)cc1)C(=O)O

Target: corresponding anti-peptide antibody
Experiment: Dissociation constants (KD) between peptide and its corresponding antibody, ForteBio instrument
Type: binding, rabbit
Excerpt: Goat anti-mouse and goat anti-rabbit antibodies were purchased from ImmunoReagents, Inc. (Raleigh, NC). Rabbit monoclonal anti-estrogen receptor (ER), anti-progesterone receptor (PR) and anti-HER2/neu receptor (HER2) antibodies were purchased from Epitomics, Inc. (Fremont, CA). Mouse anti-Ki67 was purchased from BD Biosciences, San Diego, CA Rabbit monoclonal anti-peptide antibodies against PEP1, PEP2, PEP3, PEP4, and PEP5 were obtained from AvantGen, Inc. (San Diego, CA).
The “AOA” group (aminooxyacetamide) was used to attach the peptide to the 4FB-modified primary antibody. Also shown in Table 1 are the dissociation constants (KD) between peptide and its corresponding antibody. These values were obtained using a ForteBio instrument (www.fortebio.com).

AOA-DATNVGDEGGFAPNILENK ({AOA}-DATNVGDEGGFAPNILENK) [PEP3]
Kd: 0.09 nM

AOA-ETSGLQEQRNHLQGK-NH2 (HELM PEPTIDE1{[NOCC(=O)[*:2]].E.T.S.G.L.Q.E.Q.R.N.H.L.Q.G.K.[am]}$$$$V2.0; SMILES CC(C)C[C@H](NC(=O)CNC(=O)[C@H](CO)NC(=O)[C@@H](NC(=O)[C@H](CCC(=O)O)NC(=O)CON)[C@@H](C)O)C(=O)N[C@@H](CCC(N)=O)C(=O)N[C@@H](CCC(=O)O)C(=O)N[C@@H](CCC(N)=O)C(=O)N[C@@H](CCCNC(=N)N)C(=O)N[C@@H](CC(N)=O)C(=O)N[C@@H](Cc1c[nH]cn1)C(=O)N[C@@H](CC(C)C)C(=O)N[C@@H](CCC(N)=O)C(=O)NCC(=O)N[C@@H](CCCCN)C(N)=O) [PEP6]
Kd: 0.02 nM

AOA-LALQAQPVPDELVTK ({AOA}-LALQAQPVPDELVTK) [PEP1]
Kd: 0.09 nM

AOA-GLEPGQEYNVLLTAEK ({AOA}-GLEPGQEYNVLLTAEK) [PEP4]
Kd: 0.09 nM

AOA-RPHFPQF-pY-SASGTA ({AOA}-RPHFPQF[pY]SASGTA) [PEP5]
Kd: 0.04 nM

AOA-DITSDTSGDFR ({AOA}-DITSDTSGDFR) [PEP2]
Kd: 0.16 nM
